Target: Dual specificity tyrosine-phosphorylation-regulated kinase 1A (Homo sapiens, UniProt Q13627)
Assay: Then, DYRK1A kinase was added thereto, followed by mixing well. Each compound of Examples was added thereto by using acoustic technology (Echo550; nanoliter range). […] After reacting at room temperature for 2 hours, spotting was performed on P81 exchange paper. Upon completion of the reaction, kinase activity was detected using a filter-binding method.

CCNc1cc(Nc2cc(F)c(C(=O)NC3CCN(C)CC3)cc2OC)nc2[nH]cc(C(F)(F)F)c12
IC50: > 100 nM
